Measurements: PubChem BioAssay AID260 (DTP/NCI, 2004)
“And” between values parts separate entries of the source, which are not always exact repeats. Identical values can stand only once. Inconclusive results and toxic doses are left out.

Test system: CD2F1 mice, intracerebral L1210 leukemia, survival T/C
Test: NCI In Vivo Anticancer Drug Screen. Data for tumor model L1210 Leukemia (intracerebral) in CD2F1 (CDF1) mice
Details: higher = longer survival
Method: The antitumor activity of compounds was measured in mice bearing transplantable tumors. Survival or tumor size were measured and the results are expressed as the measurement made in the treated group (T) divided by the measurement made in the vehicle treated control group (C). The tumor model used in this assay is L1210 Leukemia (intracerebral) in CD2F1 (CDF1) mice

[1] = endpoint: median survival time, dose: 50.0 mg/kg/injection, schedule: Q01DX001 (ip), vehicle: DMSO
[2] = endpoint: median survival time, dose: 100.0 mg/kg/injection, schedule: Q01DX009 (ip), vehicle: saline with Tween-80

With `CC1CCC(NC(=O)N(CCCl)N=O)CC1` (stereo not given) the T/C (endpoint: median survival time, dose: 4.0 mg/kg/injection, schedule: Q01DX001 (ip), vehicle: other) was 123 % of control, the T/C (endpoint: median survival time, dose: 6.25 mg/kg/injection, schedule: Q01DX001 (ip), vehicle: DMSO) was 116 % of control and the T/C (endpoint: median survival time, dose: 6.25 mg/kg/injection, schedule: Q01DX001 (ip), vehicle: saline + alcohol) was 116 % of control. For the same compound, the T/C (endpoint: median survival time, dose: 6.25 mg/kg/injection, schedule: Q01DX001 (oral), vehicle: saline + alcohol) was 109 % of control, the T/C (endpoint: median survival time, dose: 12.5 mg/kg/injection, schedule: Q01DX001 (ip), vehicle: DMSO) was 116 % of control and the T/C (endpoint: median survival time, dose: 12.5 mg/kg/injection, schedule: Q01DX001 (ip), vehicle: saline + alcohol) was 119 % of control. For the same compound, the T/C (endpoint: median survival time, dose: 12.5 mg/kg/injection, schedule: Q01DX001 (oral), vehicle: saline + alcohol) was 109 % of control, the T/C (endpoint: median survival time, dose: 16.0 mg/kg/injection, schedule: Q01DX001 (ip), vehicle: other) was 166 % of control and the T/C (endpoint: median survival time, dose: 25.0 mg/kg/injection, schedule: Q01DX001 (ip), vehicle: saline + alcohol) was 166 % of control. For the same compound, the T/C (endpoint: median survival time, dose: 25.0 mg/kg/injection, schedule: Q01DX001 (oral), vehicle: saline + alcohol) was 120 % of control, the T/C (endpoint: median survival time, dose: 32.0 mg/kg/injection, schedule: Q01DX001 (ip), vehicle: other) was 333 % of control and the T/C [1] was 123 % of control. The T/C (endpoint: median survival time, dose: 50.0 mg/kg/injection, schedule: Q01DX001 (ip), vehicle: saline + alcohol) was 155 % of control, the T/C (endpoint: median survival time, dose: 64.0 mg/kg/injection, schedule: Q01DX001 (ip), vehicle: other) was 88 % of control and the T/C (endpoint: median survival time, dose: 100.0 mg/kg/injection, schedule: Q01DX001 (ip), vehicle: DMSO) was 169 % of control. For the same compound, the T/C (endpoint: median survival time, dose: 100.0 mg/kg/injection, schedule: Q01DX001 (ip), vehicle: saline + alcohol) was 92 % of control and the T/C (endpoint: median survival time, dose: 100.0 mg/kg/injection, schedule: Q01DX001 (oral), vehicle: saline + alcohol) was 246 % of control.

In the case of `CC(CN1CC(=O)NC(=O)C1)N1CC(=O)NC(=O)C1` (stereo not given), the T/C (endpoint: mean survival time, dose: 8.0 mg/kg/injection, schedule: Q01DX009 (ip), vehicle: Klucel (hydroxypropylcellulose) (HPC)) is reported as 123 % of control, the T/C (endpoint: mean survival time, dose: 32.0 mg/kg/injection, schedule: Q01DX009 (ip), vehicle: Klucel (hydroxypropylcellulose) (HPC)) is reported as 152 % of control and the T/C (endpoint: mean survival time, dose: 64.0 mg/kg/injection, schedule: Q01DX009 (ip), vehicle: Klucel (hydroxypropylcellulose) (HPC)) is reported as 163 % of control. For the same compound, the T/C (endpoint: mean survival time, dose: 200.0 mg/kg/injection, schedule: Q04DX003 (ip), vehicle: steriod suspending solution) was 162 % of control.

For `C=CCN(C)N=Nc1ccc(C(N)=O)cc1`, the T/C (endpoint: mean survival time, dose: 25.0 mg/kg/injection, schedule: Q01DX009 (ip), vehicle: Klucel (hydroxypropylcellulose) (HPC)) was 98 % of control, the T/C (endpoint: mean survival time, dose: 50.0 mg/kg/injection, schedule: Q01DX009 (ip), vehicle: Klucel (hydroxypropylcellulose) (HPC)) was 108 % of control and the T/C (endpoint: mean survival time, dose: 100.0 mg/kg/injection, schedule: Q01DX009 (ip), vehicle: Klucel (hydroxypropylcellulose) (HPC)) was 118 % of control. The T/C (endpoint: mean survival time, dose: 200.0 mg/kg/injection, schedule: Q01DX009 (ip), vehicle: Klucel (hydroxypropylcellulose) (HPC)) was 118 % of control.

With `Cc1cn(C2CC(O)C(CO)O2)c(=O)[nH]c1=O` (stereo not given) the T/C [2] was 104 % of control, the T/C (endpoint: median survival time, dose: 100.0 mg/kg/injection, schedule: Q01DX009 (ip), vehicle: saline) was 100 % of control and 103 % of control and the T/C (endpoint: median survival time, dose: 200.0 mg/kg/injection, schedule: Q01DX009 (ip), vehicle: saline with Tween-80) was 107 % of control. For the same compound, the T/C (endpoint: median survival time, dose: 200.0 mg/kg/injection, schedule: Q01DX009 (ip), vehicle: saline) was 98 % of control and 100 % of control, the T/C (endpoint: median survival time, dose: 400.0 mg/kg/injection, schedule: Q01DX009 (ip), vehicle: saline with Tween-80) was 109 % of control and the T/C (endpoint: median survival time, dose: 400.0 mg/kg/injection, schedule: Q01DX009 (ip), vehicle: saline) was 101 % of control. The T/C (endpoint: median survival time, dose: 800.0 mg/kg/injection, schedule: Q01DX009 (ip), vehicle: saline with Tween-80) was 114 % of control, the T/C (endpoint: median survival time, dose: 800.0 mg/kg/injection, schedule: Q01DX009 (ip), vehicle: saline) was 103 % of control and 113 % of control and the T/C (endpoint: median survival time, dose: 1600.0 mg/kg/injection, schedule: Q01DX009 (ip), vehicle: saline with Tween-80) was 106 % of control.

`CC1C[C@@H](O)C(NC(=O)N(CCCl)N=O)[C@@H](O)C1` (stereo not given in full) was tested, and the T/C (endpoint: mean survival time, dose: 6.0 mg/kg/injection, schedule: Q01DX001 (ip), vehicle: saline) was 123 % of control, the T/C (endpoint: mean survival time, dose: 13.0 mg/kg/injection, schedule: Q01DX001 (ip), vehicle: saline) was 154 % of control and the T/C (endpoint: mean survival time, dose: 20.0 mg/kg/injection, schedule: Q01DX001 (ip), vehicle: saline) was 332 % of control. The T/C (endpoint: mean survival time, dose: 30.0 mg/kg/injection, schedule: Q01DX001 (ip), vehicle: saline) was 186 % of control and the T/C (endpoint: mean survival time, dose: 45.0 mg/kg/injection, schedule: Q01DX001 (ip), vehicle: saline) was 157 % of control.

With `CC[C@H]1CN2CCc3cc(OC)c(OC)cc3[C@@H]2C[C@@H]1C[C@H]1NCCc2cc(OC)c(OC)cc21` the T/C (endpoint: median survival time, dose: 2.0 mg/kg/injection, schedule: Q01DX005 (ip), vehicle: Klucel (hydroxypropylcellulose) (HPC)) was 98 % of control, the T/C (endpoint: median survival time, dose: 4.0 mg/kg/injection, schedule: Q01DX005 (ip), vehicle: Klucel (hydroxypropylcellulose) (HPC)) was 101 % of control and the T/C (endpoint: median survival time, dose: 8.0 mg/kg/injection, schedule: Q01DX005 (ip), vehicle: Klucel (hydroxypropylcellulose) (HPC)) was 115 % of control.

In the case of `CCCCN(C)N=Nc1c(C(N)=O)n[nH]c1C`, the T/C (endpoint: median survival time, dose: 16.0 mg/kg/injection, schedule: Q01DX005 (ip), vehicle: saline with Tween-80) is reported as 108 % of control, the T/C (endpoint: median survival time, dose: 32.0 mg/kg/injection, schedule: Q01DX005 (ip), vehicle: saline with Tween-80) is reported as 112 % of control and the T/C (endpoint: median survival time, dose: 64.0 mg/kg/injection, schedule: Q01DX005 (ip), vehicle: saline with Tween-80) is reported as 96 % of control.

`CN(C)CCCN1c2ccccc2Sc2ccc(Cl)cc21` was tested, and the T/C (endpoint: median survival time, dose: 50.0 mg/kg/injection, schedule: Q01DX001 (ip), vehicle: water) was 113 % of control.

In the case of `CCCCCCCCCCCCCCCCCC(=O)Nc1ccn(C2OC(CO)C(O)C2O)c(=O)n1` (stereo not given), the T/C (endpoint: median survival time, dose: 25.0 mg/kg/injection, schedule: Q01DX009 (ip), vehicle: saline with Tween-80) is reported as 188 % of control and the T/C [2] is reported as 121 % of control.

In the case of `CN(C)N=Nc1ccc(C(=O)O)cc1`, the T/C (endpoint: mean survival time, dose: 10.0 mg/kg/injection, schedule: Q01DX007 (ip), vehicle: DMSO) is reported as 91 % of control, the T/C (endpoint: mean survival time, dose: 20.0 mg/kg/injection, schedule: Q01DX007 (ip), vehicle: DMSO) is reported as 96 % of control and the T/C (endpoint: mean survival time, dose: 25.0 mg/kg/injection, schedule: Q01DX009 (ip), vehicle: saline) is reported as 104 % of control. The T/C (endpoint: mean survival time, dose: 40.0 mg/kg/injection, schedule: Q01DX007 (ip), vehicle: DMSO) was 108 % of control, the T/C (endpoint: mean survival time, dose: 50.0 mg/kg/injection, schedule: Q01DX009 (ip), vehicle: saline) was 119 % of control and the T/C (endpoint: mean survival time, dose: 80.0 mg/kg/injection, schedule: Q01DX007 (ip), vehicle: DMSO) was 122 % of control. The T/C (endpoint: mean survival time, dose: 200.0 mg/kg/injection, schedule: Q01DX009 (ip), vehicle: saline) was 113 % of control.

With `O=CC(NC(=O)N(CCCl)N=O)C(O)C(O)C(O)CO` (stereo not given) the T/C (endpoint: median survival time, dose: 3.13 mg/kg/injection, schedule: Q01DX001 (ip), vehicle: saline) was 103 % of control, the T/C (endpoint: median survival time, dose: 6.25 mg/kg/injection, schedule: Q01DX001 (ip), vehicle: saline) was 106 % of control and the T/C (endpoint: median survival time, dose: 12.5 mg/kg/injection, schedule: Q01DX001 (ip), vehicle: saline) was 122 % of control. For the same compound, the T/C (endpoint: median survival time, dose: 25.0 mg/kg/injection, schedule: Q01DX001 (ip), vehicle: DMSO) was 152 % of control, the T/C [1] was 95 % of control and the T/C (endpoint: median survival time, dose: 50.0 mg/kg/injection, schedule: Q01DX001 (ip), vehicle: saline) was 92 % of control. The T/C (endpoint: median survival time, dose: 50.0 mg/kg/injection, schedule: Q01DX001 (oral), vehicle: saline) was 97 % of control.

For `O=S1(=O)CS(=O)(=O)OCCO1`, the T/C (endpoint: median survival time, dose: 3.13 mg/kg/injection, schedule: Q01DX009 (ip), vehicle: Klucel (hydroxypropylcellulose) (HPC)) was 122 % of control, the T/C (endpoint: median survival time, dose: 12.5 mg/kg/injection, schedule: Q01DX009 (ip), vehicle: Klucel (hydroxypropylcellulose) (HPC)) was 170 % of control and the T/C (endpoint: median survival time, dose: 25.0 mg/kg/injection, schedule: Q01DX009 (ip), vehicle: Klucel (hydroxypropylcellulose) (HPC)) was 182 % of control. For the same compound, the T/C (endpoint: median survival time, dose: 50.0 mg/kg/injection, schedule: Q01DX009 (ip), vehicle: Klucel (hydroxypropylcellulose) (HPC)) was 200 % of control.

In the case of `C[n+]1c2ccccc2nc2c(N)cc(N)cc21`, the T/C (endpoint: median survival time, dose: 4.0 mg/kg/injection, schedule: Q01DX005 (ip), vehicle: suspension in saline) is reported as 93 % of control and 98 % of control, the T/C (endpoint: median survival time, dose: 8.0 mg/kg/injection, schedule: Q01DX005 (ip), vehicle: suspension in saline) is reported as 102 % of control and the T/C (endpoint: median survival time, dose: 16.0 mg/kg/injection, schedule: Q01DX005 (ip), vehicle: suspension in saline) is reported as 96 % of control and 98 % of control. The T/C (endpoint: median survival time, dose: 32.0 mg/kg/injection, schedule: Q01DX005 (ip), vehicle: suspension in saline) was 96 % of control and 97 % of control.
